Laboratory results reported in the NIST ThermoML archive (doi:10.1016/j.jct.2004.11.007).
Numbers after ± are expanded uncertainties.

Columns and labels:
[1] = Molar enthalpy of transition or fusion; settings: Crystal; DSC
[2] = for vapor or sublimation pressure: Liquid; for Triple point temperature: Crystal
[3] = Solid-liquid equilibrium temperature; settings: 100 kPa; Crystal

SMILES	vapor or sublimation pressure ([2]; 373.15 K) [kPa]	Triple point temperature ([2]; visual observation) [K]	vapor or sublimation pressure ([2]; 333.15 K) [kPa]	also measured
CN1CCCC1=O [N-methylpyrrolidone]	3.6 ± 2.6	249.68 ± 0.39	0.5	Molar enthalpy of transition or fusion [1]: 2.64 ± 0.0693 kcal/mol
CCCCC(C)=O [2-hexanone]	43.8 ± 1.8	–	–	Solid-liquid equilibrium temperature [3]: 215.57 ± 2 K; Triple point temperature [2]: 218.42 ± 2 K
CCCC(=O)CCC [4-heptanone]	–	241.77 ± 0.39	–	–
CC(C)=O [acetone]	–	–	115.7 ± 5.4	–

Continued, in another order:

vapor or sublimation pressure ([2]; 373.15 K) [kPa]	Triple point temperature ([2]; visual observation) [K]	SMILES	vapor or sublimation pressure ([2]; 333.15 K) [kPa]	also measured
95.9 ± 4.9	234.36 ± 0.39	CCC(=O)CC [pentan-3-one]	–	–
–	220.77 ± 0.39	O=C1CCCC1 [cyclopentanone]	–	–
